{"source": "patent US20110178142A1", "about": "“PHARMACEUTICAL COMPOSITION FOR THERAPEUTIC OR PROPHYLACTIC TREATMENT OF BACTERIAL INFECTIONS AND ASSOCIATED DISEASES” (National Institute of Immunology, priority 2008, published 2011)", "key": {"FtsZ [1]": {"target": "T1, FtsZ (Escherichia coli, UniProt P0A9A6)", "T1 construct": "The recombinant protein is exactly same as the natural protein; made in house; host or cells: E. coli BL21", "test": "GTPase activity of FtsZ (malachite green ammonium molybdate assay)", "format": "biochemical, E. coli", "description": "(§1) FtsZ was over-expressed and purified from E. coli BL21 strain as described by Santa and Panda. (Detection of an intermediate during unfolding of bacterial cell division protein FtsZ: loss of functional properties precedes the global unfolding of FtsZ. (2003). The Journal of Biological Chemistry. 278, 21336-43). The recombinant protein is exactly same as the natural protein. For all the experimental procedures, the above expressed and purified recombinant FtsZ was used. The FtsZ concentration was measured by the Bradford method using BSA as a standard (Bradford M M. (1976) A rapid and sensitive method for the quantitation of microgram quantities of protein utilizing the principle of protein-dye binding. Analytical Biochemistry. 72, 248-54). The purified protein was frozen and stored at −80° C. Prior to use, FtsZ was thawed and centrifuged at 287,000 ×g for 30 min to remove any insoluble aggregates.\nIt was then polymerized in the presence of 10 mM magnesium and 1 mM GTP at 37° C. The GTP hydrolysis reaction was quenched at different time points by adding perchloric acid. Moles of inorganic phosphate released per mole of FtsZ were measured using the standard malachite green ammonium molybdate assay (Geladopoulos T P, Sotiroudis T G and Evangelopoulos A E. (1991). A malachite green colorimetric assay for protein phosphatase activity. Analytical Biochemistry.192,112-6;Beuria T K, Krishnakumar S S, Sahar S, Singh N, Gupta K, Meshram M and Panda D. (2003) Glutamate-induced assembly of bacterial cell division protein FtsZ. The Journal of Biological Chemistry. 278, 3735-41)."}, "FtsZ (Y371W)": {"target": "T2, FtsZ (Y371W) (Escherichia coli, UniProt P0A9A6, Y371W)", "T2 sequence (P0A9A6 1-383 Y371W)": "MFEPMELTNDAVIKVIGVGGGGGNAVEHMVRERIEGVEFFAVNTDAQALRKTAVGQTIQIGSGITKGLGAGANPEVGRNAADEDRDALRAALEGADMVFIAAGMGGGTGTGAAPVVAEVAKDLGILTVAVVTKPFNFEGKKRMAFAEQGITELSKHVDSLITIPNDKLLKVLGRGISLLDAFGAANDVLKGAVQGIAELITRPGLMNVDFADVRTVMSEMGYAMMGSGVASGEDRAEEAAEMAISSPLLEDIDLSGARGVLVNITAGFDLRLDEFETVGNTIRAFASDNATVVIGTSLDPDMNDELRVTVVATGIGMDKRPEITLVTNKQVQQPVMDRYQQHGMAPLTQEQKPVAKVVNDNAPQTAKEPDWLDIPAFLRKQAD", "test": "Binding to FtsZ by tryptophan fluorescence quenching, double reciprocal plot", "design": "species or system E. coli", "settings": "FtsZ (Y371W) 1 μM, 25° C., read-out: dissociation constant of FtsZ-compound complex", "method": "(Beuria T K, Santra M K and Panda D. (2005) Sanguinarine blocks cytokinesis in bacteria by inhibiting FtsZ assembly and bundling. Biochemistry. 44, 16584-93). […] The change in the fluorescence intensity was used to calculate the dissociation constant of FtsZ-compound complex. A dissociation constant of 15±1.5 μM was determined using a double reciprocal plot of the binding data (FIG. 5B)."}, "FtsZ [2]": {"target": "T1, FtsZ", "test": "Electron microscopic analysis of FtsZ assembly", "format": "biochemical, E. coli", "description": "as §1\nFtsZ (12 μM) in 25 mM pipes buffer (pH 6.5) was incubated without or with different concentrations of compound for 10 min on ice. Then, 10 mM MgSO4 and 1 mM GTP were added to the reaction mixtures and incubated for an additional 15 min at 37° C. Samples were transferred onto a formvar-carbon coated copper grid, stained with 2% uranyl acetate and observed using Transmission Electron Microscope (FEI TECHNAI G^2 12) as described previously (Beuria T K, Santra M K and Panda D. (2005) Sanguinarine blocks cytokinesis in bacteria by inhibiting FtsZ assembly and bundling. Biochemistry. 44, 16584-93).\nThe observed difference in the thickness of the FtsZ protofilament bundles in the absence and presence of 10 and 25 μM concentration is significant at a 99.9% confidence level (p<0.001)."}, "FtsZ [3]": {"target": "T1, FtsZ", "test": "Sedimentation assay of FtsZ polymerization", "format": "biochemical, E. coli", "settings": "50 μM compound; FtsZ 12 μM", "description": "as §1, with “Prior to use, FtsZ was thawed and centrifuged at 287,000 ×g for 30 min to remove any insoluble aggregates.” left out\nThen, 10 mM MgSO4 and 1 mM GTP were added to the reaction mixtures and incubated for an additional 15 min at 37° C. Polymerized FtsZ was sedimented at 287,000×g for […], and the protein concentration in the supernatant was measured (Santra M K and Panda D. (2007) Acid-induced loss of functional properties of bacterial cell division protein FtsZ: evidence for an alternative conformation at acidic pH, Proteins. 67,177-88). The protein concentration in the pellet was calculated by subtracting the protein concentration in the supernatant from the total protein concentration."}, "FtsZ [4]": {"target": "T1, FtsZ", "test": "Far-UV circular dichroism of FtsZ", "design": "species or system E. coli", "settings": "0-50 μM compound; FtsZ 1 μM", "description": "as §1\nThe far-UV CD spectra were recorded using a JASCO spectropolarimeter. The secondary structure was monitored over the wavelength range of 200-260 nm using a 0.1-cm path length cuvette and the ellipticity was determined at 220 nm. Each spectrum was recorded using an average of 3 scans."}, "FtsZ [5]": {"target": "T1, FtsZ", "test": "Dilution-induced disassembly of preformed FtsZ filaments", "format": "biochemical, E. coli", "settings": "20 fold dilution, 5 min at 37° C., concentration dependent", "description": "as §1\nFtsZ (30 μM) was polymerized in 25 mM pipes buffer in the presence of 5 mM MgCl2, 1 mM GTP and 50 mM KCl. Preformed FtsZ polymers were diluted 20 fold in warm 25 mM pipes buffer in the absence and presence of different concentrations of Compound 1 and the mixtures were incubated for 5 min at 37° C. The polymers were then collected by centrifugation."}}, "data": [{"smiles": "O=C(O)c1cccc(-c2ccc(C=C3SC(=S)N(c4cccc(C(F)(F)F)c4)C3=O)o2)c1", "note": "[the compound, 3-{5-[4-Oxo-2-thioxo-3-(3-trifluoromethyl-phenyl)-thiazolidin-5-ylidenemethyl]-furan-2-yl}-benzoic acid]", "values": [{"measurement": "rate of GTP hydrolysis at 5 min", "setting": "FtsZ [1]; 10 μM compound", "value": "2.9 phosphate release per FtsZ per min"}, {"measurement": "rate of GTP hydrolysis at 5 min", "setting": "FtsZ [1]; 25 μM compound", "value": "1.5 phosphate release per FtsZ per min"}, {"measurement": "rate of GTP hydrolysis at 5 min", "setting": "FtsZ [1]; 50 μM compound", "value": "1.3 phosphate release per FtsZ per min"}, {"measurement": "Kd", "setting": "FtsZ (Y371W)", "value": "15 ± 1.5", "unit": "µM"}, {"measurement": "average thickness of FtsZ bundles", "setting": "FtsZ [2]; 10 μM compound", "value": "64±3", "unit": "nm"}, {"measurement": "average thickness of FtsZ bundles", "setting": "FtsZ [2]; 25 μM compound", "value": "66±4.3", "unit": "nm"}, {"measurement": "average thickness of FtsZ bundles", "setting": "FtsZ [2]; 50 μM compound, large number of aggregates observed", "value": "46±3.5", "unit": "nm"}, {"measurement": "increase of sedimentable polymeric mass of FtsZ", "setting": "FtsZ [3]", "value": 25, "unit": "%"}, {"measurement": "effect on secondary structure of FtsZ (far-UV CD)", "setting": "FtsZ [4]", "value": "did not change the secondary structure"}, {"measurement": "dilution-induced disassembly of FtsZ protofilaments", "setting": "FtsZ [5]", "value": "strongly prevented"}]}]}
